“Also recorded” adds a separate entry of the source.

Consider one compound from article PMC11791359, “A select inhibitor of MORC2 encapsulated by chimeric membranecoated DNA nanocage target alleviation TNBC progression” (Materials Today Bio, 2025).

Type in all cases: cell-based, human
One data set has as its system MDA-MB-468 cells. In words: CCK8 assay, MDA-MB-468. Conditions: CCK8, MDA-MB-468, 24 h. As for the experimental part: MDA-MB-231 and MDA-MB-468 cells were inoculated on 96-well plates with 5×10^3 cells per well, and then different small molecule drugs were added according to study requirements after the cell culture reached the appropriate density. Twenty-four hours after treatment, CCK-8 reagent was added to each well and incubated for 2 hours. Then, the absorbance of each well was measured at 450 nm using an enzyme-labeler to calculate the relative survival rate of cells.
In general terms: Tetrazolium assays rely on reduction of a dye to a coloured formazan, in cell work by metabolically active cells.

In the next data set the test system is TNBC cells. Kind of data set: Apoptosis by flow cytometry (Annexin V-FITC/PI). As to conditions: TNBC cells treated with Angoline. Here is the method: The treated cells were digested with pancreatic enzymes and then were collected and washed with PBS. The cells were immobilized with pre-cooled 70% ethanol at 4 ℃ for 12-24 hours, and then centrifuged, washed, and suspended to ensure uniform cell dispersion. Propyridine iodide staining solution was added to each cell sample and incubated without light at 37 ℃ for 30 minutes. Subsequently, the labeled cells were subjected to cell cycle analysis using flow cytometer (Beckman Coulter, USA), and the results were processed by FlowJo software. For the apoptosis assay, 1 × 10^5 cells per sample were collected into 1.5 mL centrifuge tubes and were re-suspended with 195 μL Annexin V-FITC binding solution. Then, 5 μL Annexin V-FITC and 10 μL PI dyeing solution were added into every sample to re-suspend the cells and incubated at 20-25 °C for 20 minutes. Flow cytometry was used to detect red fluorescence at 638 nm and green fluorescence at 488 nm, and the apoptosis results were analysed by FlowJo software.
On the technique in general: In flow cytometry, cells or beads pass a laser one at a time.

A further data set has as its system MCF-10A cells. Here is the method: Furthermore, the toxicity and side effects of PMD (Angoline) were evaluated through a comprehensive series of experiments. Firstly, normal breast epithelial cells (MCF-10A) were used to assess drug toxicity. […] Furthermore, we tested the immune-promoting cytokines, such as TNF-α, IL-1β and IL-6.

Regarding `COc1ccc2c(c1OC)C(OC)N(C)c1c-2ccc2cc3c(cc12)OCO3` (stereo not drawn) [Angoline], the “killing effect / inhibitory effect on cell viability” value in the data set on MDA-MB-468 cells is listed as “strongest killing effect; also recorded: progressively increased with higher concentrations”. Moreover, the apoptosis rate entry with TNBC cells is given as “significantly increased; also recorded: dramatically increased”. Also, the “toxicity toward MCF-10A cells” value with MCF-10A cells is “neither Angoline nor PMD (Angoline) exhibited toxicity”.
